Results: patent publication US20090011975A1, “TARGETED BONE MARROW PROTECTION AGENTS” (Semafore Pharmaceuticals Inc., priority 2003, published 2009)
Where two headings read alike, the source gives them in different places.

Columns and labels:
[1] = Affinity of bone targeting agents to hydroxyapatite (supernatant LCMS); format: binding; details: 0.100 mM test solution in TBS pH 7.40, HA suspension 1.00 or 10.0 mg/ml, 1 hour (FIG. 25)
Experimental: To determine the affinity of the bone targeting agents to hydroxyapatite, the method described in Willson et al., Biorganic & Medicinal Chemistry Letters, 6(9), 1043-1046 (1996) for determining bone affinity using HPLC retention on a hydroxyapatite column was modified. The affinity of several bone targeting agents was determined using the following method. […] The suspension was diluted to prepare a 1.00 mg/ml HA suspension by stirring on a magnetic stir plate at the slowest speed necessary to create a uniform suspension appropriate for sampling. Each tested compound was dissolved in TBS at a concentration of 0.100 mM. 200 μl of test solution was mixed with 200 μl of TBS, HA at 1.00 mg/ml, or HA at 10.0 mg/ml, and agitated on an orbital shaker at 200 rpm for 1 hour. Each experiment was performed in triplicate. The supernatant solution was analyzed using single ion monitoring (SIM) mass spectral mode on a Shimadzu LCMS-2010 liquid chromatograph-mass spectrometer. The SIM counts in the test compound/TBS solutions were set at 100%. The amount of test compound present in the HA supernatant test solutions was expressed as a percentage of the amount of test compound available with no hydroxyapatite present. Tetracycline was included as a positive control.

[2] = Conversion of PFT-α to PFT-β in human serum; format: in vitro ADME; details: for peak area (254 nm), Human Serum Stability: PFT-α initially 50 μMolar, 37° C.
Experimental: (§1) A 10.0 mMolar solution of PFT-α in DMSO was prepared. A 5 μL aliquot of the solution was diluted with 495 μL of methanol, and further diluted with 500 μL of acetonitrile to produce a comparison standard 50 μMolar solution. Five 5 μL aliquots of 10.0 mMolar solution of PFT-α in DMSO was added to each of five plastic vials containing 495 μL of human serum (Sigma-Aldrich), and the vials were capped. The solution was mixed thoroughly and allowed to stand at 37° C. At different timepoints, each of the 5 vials were removed from heat, cooled to room temperature, and the solution was diluted with 500 μL of acetonitrile to precipitate proteins and nondesirable solutes. Each mixture was vortexed vigorously, passed through a 0.2 um Whatman Uniprep sample filter device, and analyzed by LC-MS (the methods of which are described in Example 12). The UV areas for the peak corresponding to PFT-α (retention time=1.8 minutes) and for the peak corresponding to PFT-β (retention time=3.9 minutes) were tabulated.

[3] = Conversion of PFT-α to PFT-β in phosphate buffer pH 7.4; format: physicochemical; details: for peak area (254 nm), Phosphate Buffer pH = 7.4 Stability: PFT-α initially 50 μMolar, 37° C.
Experimental: as §1
The method set forth above was repeated wherein 50 mMolar phosphate buffer (pH=7.4) was substituted for human serum.

[4] = system: C8 cells (mouse embryo fibroblasts transformed with E1a+ras); details: cited from earlier work
[5] = system: C57BL strain and Balb/c strain mice; details: cited from earlier work
p53-null mice = details: PFT-α injections; cited from earlier work
[6] = Reversibility of acyl methylenes in phosphate buffer; format: physicochemical; details: 50 mM phosphate buffer
Experimental: A prodrug strategy was devised using cyclized PFT-β and a structure activity relationship to obtain a prodrug linkage that converts to the native drug with about a 3 day half-life. A key novel intermediate (BI) (the chemical structure of which is set forth in FIG. 22) was generated in greater than 90% yield and >95% purity. […] This allowed preparation of the acyl methylene compounds recited in Table 2. All of the compounds of Table 2 were diluted into 50 mM phosphate buffer at pH=7.4 and pH=4.8 at room temperature and analyzed over time for stability. The amount of PFT-β was quantitated, and the amount of acyl methylene disappearing over time was quantitated by LCMS. A half-life for the cleavage of the acyl methylenes to generate PFT-β under relevant physiological conditions was determined. These half lives are set forth in Table 2 associated with the structures.

[7] = system: p53-mediated transcription; test: p53-mediated transcription, MASPIN promoter-luciferase in HBECs; format: cell-based, human; details: PFT-β liberated from (BH) on hydroxyapatite, HBECs transfected with wild type p53 plasmid (FIG. 27)
Experimental: The binding to hydroxyapatite to the bone targeted prodrug (BH) and its conversion over time to liberate PFT-β was described in Example 10. The PFT-β liberated (5.11 millimolar solution from Example 10) was assayed for its biological activity by evaluating the degree of p53-mediated transcription in the presence and absence of the liberated PFT-β. The assay comprised transiently transfecting human brain endothelial cells (HBECs) with a plasmid comprising the MASPIN promoter, which contains two p53 binding sites, operably linked to the luciferase gene. A group of HBECs was transiently transfected with a plasmid encoding wild type p53. Thus, if p53 produced in the transfected HBECs is active, transcription of the luciferase gene will be activated and the produced luciferase detected. p53-mediated transcription is measured relative to the internal control plasmid pCMVβ-galactosidase to control for transfection efficiency.
The results of the assay are set forth in the bar graph of FIG. 27, the data of which represents fold induction of p53-specific transcriptional activity in HBECs. Column 1 of FIG. 27 represents a negative control resulting from HBECs not transfected with the wild type p53 plasmid. Column 2 of FIG. 27 represents data obtained from HBECs transfected with the wild type p53 plasmid which were not exposed to PFT-β. […]

Aqueous solubility = format: physicochemical
[8] = Binding of (BH) to hydroxyapatite and resistance to washing
Experimental: The final conjugate (BH) (see Table 2) was synthesized (assembled) as described and purified by HPLC. […] A 900 μL aliquot of 1.9 mM (BH) in 5 mM phosphate buffer at pH=7 was mixed with 100 μL of an hydroxyapatite suspension (25 weight percent hydroxyapatite; Sigma) containing approximately 25 mg of hydroxyapatite. The suspension was mixed gently for 15 minutes and then centrifuged at 10,000 rpm for one minute. A 100 μL aliquot was removed and analyzed by electrospray LCMS and compared to a standard solution that had not been exposed to hydroxyapatite. […] The supernatant was decanted from the hydroxyapatite solid, an additional 900 μL of de-ionized water was added, and the mix was shaken vigorously for 20 seconds. The suspension was then centrifuged at 10,000 rpm for one minute. A 100 μL aliquot of suspension was removed and analyzed by electrospray LCMS and compared to the standard solution that had not been exposed to hydroxyapatite. […] The supernatant was decanted from the hydroxyapatite solid, an additional 900 μL of de-ionized water was added, and the mix was shaken vigorously for 20 seconds. The suspension was then centrifuged at 10,000 rpm for one minute. A 100 μL aliquot was removed and analyzed by electrospray LCMS and compared to the standard solution. […] Thus, of the original 1.74 μMoles of (BH) present in the supernatant and exposed to the hydroxyapatite, a total of 0.48 μMoles was recovered in the original supernatant plus the two water washes.

[9] = Liberation of PFT-β from hydroxyapatite-bound (BH) over time; format: physicochemical
Experimental: The hydroxyapatite of the suspension was then resuspended in wash number 2 supernatant by pipetting up and down. A 20 μL aliquot of the resulting 900 μL suspension was removed and extracted with methanol. An analysis of the methanol extract by LCMS (versus a standard of (BH)) indicated no detectable (BH) was extractable from the hydroxyapatite sample known to contain the 1.26 μMoles of (BH) described above. […] The suspension was then gently rocked for 34 hours. A 20 μL aliquot was removed and analyzed after extraction with methanol. […] An addition aliquot of the gently mixed suspension was obtained after a total 153 hours contained no detectable, extractable (BH).

[10] = pH 4.8, room temperature, read-out: Half Life pH = 4.8
[11] = pH 7.4, room temperature, read-out: Half Life pH = 7.4 (converted)

| Compound | affinity to hydroxyapatite [1] | peak area (254 nm), Human Serum Stability ([2]; 0 hours) | peak area (254 nm), Human Serum Stability ([2]; 1.5 hours) | peak area (254 nm), Human Serum Stability ([2]; 3 hours) | peak area (254 nm), Human Serum Stability ([2]; 4.5 hours) | peak area (254 nm), Human Serum Stability ([2]; 17 hours) | peak area (254 nm), Phosphate Buffer pH = 7.4 Stability ([3]; 0 hours) | peak area (254 nm), Phosphate Buffer pH = 7.4 Stability ([3]; 1.5 hours) | peak area (254 nm), Phosphate Buffer pH = 7.4 Stability ([3]; 3 hours) | peak area (254 nm), Phosphate Buffer pH = 7.4 Stability ([3]; 4.5 hours) | peak area (254 nm), Phosphate Buffer pH = 7.4 Stability ([3]; 17 hours) | half-life at 100 µM [6, 10] [days] | half-life at 100 µM [6, 11] [days] | further results |
| --- | --- | --- | --- | --- | --- | --- | --- | --- | --- | --- | --- | --- | --- | --- |
| Phenyphosphonic acid [BK] | no observable affinity |  |  |  |  |  |  |  |  |  |  |  |  |  |
| Cc1ccc(C(=O)Cn2c3c(sc2=N)CCCC3)cc1 [PFT-α, 2-[2-imino-4,5,6,7-tetrahydro-1,3-benzothiazol-3(2H)-yl]-1-(4-methylphenyl)-1-ethanone] |  | 547169 | 312351 | 156823 | 118842 | 7927 | 584109 | 448284 | 303800 | 227004 | 18724 |  |  | time in which half of PFT-α is converted to PFT-β ([2]; human serum, initial 50 μMolar): about 3 hours; time in which half of PFT-α is converted to PFT-β ([3]; phosphate buffer, initial 50 μMolar): about 1.8 hours; inhibition of apoptosis induced by doxorubicin, etoposide, paclitaxel, cytosine arabinoside, UV light, and gamma radiation ([4]; 10 micromolar concentration): inhibited apoptosis; protection on pretreatment of cells and removal of the compound before the stress-inducing event ([4]; pretreatment, compound removed before stress): no significant protection; tumors or pathological lesions in gamma-irradiated survivors ([5]; 7 months post-irradiation): No tumors or pathological lesions; rescue from 60% killing doses of gamma radiation ([5]; single intraperitoneal injection 2.2 mg/kg, 8 Gy C57BL, 6 Gy Balb/c): completely rescued; weight-loss versus controls ([5]; treated irradiated animals): less weight-loss than controls; protective effect in p53-null mice treated with radiation (p53-null mice): no protective effect |
| CC(=O)OC[n+]1c(-c2ccc(C)cc2)cn2c3c(sc21)CCCC3 [BG] |  |  |  |  |  |  |  |  |  |  |  | > 20.8 | > 20.8 |  |
| Cc1ccc(-c2cn3c4c(sc3n2)CCCC4)cc1 [PFT-β, 2-p-Tolyl-5,6,7,8-tetrahydro-benzo[d]imidazo[2,1-b]thiazole] |  | 13781 | 259004 | 448826 | 512198 | 696098 | 13032 | 176201 | 307793 | 427152 | 601840 |  |  | biological activity (inhibition of p53-mediated transcription) [7]: biologically active; aqueous solubility (Aqueous solubility): about 3 μMolar |
| Cc1ccc(-c2cn3c4c(sc3[n+]2COC(=O)c2ccc(CN(CP(=O)(O)O)CP(=O)(O)O)cc2)CCCC4)cc1 [BH] | almost identical to that of (BC) |  |  |  |  |  |  |  |  |  |  | > 20.8 | 3.23 | originally present (BH) bound to the hydroxyapatite solid ([8]; 1.9 mM in 5 mM phosphate buffer pH 7, approx. 25 mg hydroxyapatite, 15 minutes): 77%; originally present (BH) in the supernatant, wash number 1 ([8]; 900 μL de-ionized water wash 1): 3.5%; originally present (BH) in the supernatant, wash number 2 ([8]; 900 μL de-ionized water wash 2): 0.6%; (BH) remained in the supernatant solution ([8]; after 15 minutes with hydroxyapatite): 23%; (BH) adsorbed to the hydroxyapatite so as to resist washing off ([8]; of original 1.74 μMoles): 1.26 µmol; total recovered in the original supernatant plus the two water washes ([8]; of original 1.74 μMoles): 0.48 µmol; (BH) extractable with methanol from hydroxyapatite ([9]; 34 hours): no detectable; prodrug cleavage product PFT-β, percent of the 1.26 μMoles sorbed ([9]; 34 hours): 19.6%; (BH) extractable with methanol from hydroxyapatite ([9]; 105 hours): no detectable; prodrug cleavage product PFT-β, percent of the 1.26 μMoles sorbed ([9]; 105 hours): 29.1%; (BH) extractable with methanol from hydroxyapatite ([9]; 153 hours): no detectable; prodrug cleavage product PFT-β, percent of the 1.26 μMoles sorbed ([9]; 153 hours): 37.5%; (BH) extractable with methanol from hydroxyapatite ([9]; start, after washes): no detectable; prodrug cleavage product PFT-β, percent of the 1.26 μMoles sorbed ([9]; start, after washes): < 7% |
